According to ChEMBL document CHEMBL1614630, “Extrapolation of preclinical pharmacokinetics and molecular feature analysis of "discovery-like" molecules to predict human pharmacokinetics” (Drug Metab Dispos, 2006):

Assays:
[1] = Volume of distribution at steady state in monkey after iv administration; conditions: macaca, in vivo
[2] = Volume of distribution at steady state in rat after iv administration; conditions: in vivo
[3] = Volume of distribution at steady state in dog after iv administration; conditions: in vivo
[4] = Clearance in monkey after iv administration; conditions: macaca, in vivo
[5] = Clearance in dog after iv administration; conditions: in vivo
[6] = Volume of distribution at steady state in human after iv administration; conditions: in vivo
[7] = Clearance in human after iv administration; conditions: in vivo
[8] = Clearance in rat after iv administration; conditions: in vivo

Structure (SMILES) | Vd [1] [L/kg] | Vdss [2] [L/kg] | Vd [3] [L/kg] | clearance [4] [mL/min/kg] | clearance [5] [mL/min/kg] | Vd [6] [L/kg] | clearance [7] [mL/min/kg] | clearance [8] [mL/min/kg]
COc1ccc([C@H](CC(=O)O)N2CCN(CCCc3ccc4c(n3)NCCC4)C2=O)cn1 | 0.3 | 1.5 | 0.9 | 9 | 5.4 | 0.2 | 1 | 
CCCN1CCC[C@@H](c2cccc(S(C)(=O)=O)c2)C1 | 1.4 | 1.5 | 2.5 | 33.3 | 36.7 | 2.2 | 7.2 | 46.7
OC(CCN1CCCCC1)(c1ccccc1)C1CC2C=CC1C2 (stereo not given) [BIPERIDEN] | 3.6 | 14 | 9.5 | 21.9 | 27 | 6.2 | 15.3 | 
CN(C)CCCN1c2ccccc2Sc2ccc(Cl)cc21 [CHLORPROMAZINE] | 8 | 29.1 | 16.3 | 24.6 | 53 | 11.2 | 4.3 | 61
COc1ccc([C@@H]2Sc3ccccc3N(CCN(C)C)C(=O)[C@@H]2OC(C)=O)cc1 [DILTIAZEM] | 3.5 | 3.6 | 21.4 | 34.5 | 59 |  | 12 | 82.3
CCOc1cc(Cc2cnc(N)nc2N)cc(OCC)c1-n1cccc1 [EPIROPRIM] | 5.1 | 4.6 | 8.3 | 30.6 | 10.7 | 2.5 | 3.5 | 45
COc1ccc(Cl)cc1[C@]1(F)C(=O)Nc2cc(C(F)(F)F)ccc21 [FLINDOKALNER] | 5.4 | 3.4 | 3.2 | 40.2 | 3.1 | 2.35 | 7.63 | 29.9
C[C@H]1NCc2cc(-c3ccc4c(=O)c(C(=O)O)cn(C5CC5)c4c3OC(F)F)ccc21 [GARENOXACIN] | 1 | 0.9 | 1.3 | 3.4 | 2.4 | 1 | 1.2 | 12.1
O=C(CCCN1CCC(O)(c2ccc(Cl)cc2)CC1)c1ccc(F)cc1 [HALOPERIDOL] | 6.6 | 10.4 | 37 |  |  |  |  | 
Cc1ncc2n1-c1ccc(Cl)cc1C(c1ccccc1F)=NC2 [MIDAZOLAM] | 1.5 | 1.6 | 3 | 24.2 | 27 | 1.1 | 6.6 | 67
CC#C[C@]1(O)CC[C@H]2[C@@H]3CCC4=CC(=O)CCC4=C3[C@@H](c3ccc(N(C)C)cc3)C[C@@]21C [MIFEPRISTONE] | 32.5 | 4.3 | 10.5 | 24.2 | 15.6 | 0.3 | 0.33 | 50
COC(=O)C1=C(C)NC(C)=C(C(=O)OC)C1c1ccccc1[N+](=O)[O-] [NIFEDIPINE] | 0.5 | 0.13 | 1.15 |  |  |  |  | 
CC1COc2c(N3CCN(C)CC3)c(F)cc3c(=O)c(C(=O)O)cn1c23 (stereo not given) [OFLOXACIN] | 1.6 | 1.66 | 1.15 | 7.5 | 2.65 | 1.78 | 4.53 | 26.3
CCN1CCC[C@H]1CNC(=O)c1c(OC)ccc(Br)c1OC [REMOXIPRIDE] | 1.1 | 4.5 | 1.6 | 11.8 | 4.9 | 0.7 | 1.7 | 170
Cc1cc(C)c(/C=C2\C(=O)Nc3ccccc32)[nH]1 [SEMAXANIB] | 1.45 | 1.6 | 1.4 | 25.7 | 52 | 0.98 | 14 | 45
CCC1=C[C@@H]2CN(C1)Cc1c([nH]c3ccccc13)[C@@](C(=O)OC)(c1cc3c(cc1OC)N(C)[C@H]1[C@@](O)(C(=O)OC)[C@H](OC(C)=O)[C@]4(CC)C=CCN5CC[C@]31[C@@H]54)C2 [VINORELBINE] | 11.4 | 24.4 | 49.6 | 23.6 | 20 | 75.6 | 21 | 31.7
